# According to PMC9028278, “2-Pyridine Carboxaldehyde for Semi-Automated Soft Spot Identification in Cyclic Peptides” (International Journal of Molecular Sciences, 2022):
# Where a SMILES comes first, the peptide text is derived from it. Bridges are numbered along the chain shown (N, C = ends).
# Assay: Soft spot identification time course in dilute rat intestinal luminal contents with 2PCA derivatization
# Assay type: in vitro ADME
# Conditions: 10 µM peptide; for metabolic soft spot: most N-terminal residue of the ring-opened (singly hydrolyzed) peptide, assigned through the 2PCA tag: dilute rat intestinal luminal contents (fasted male SD rats, duodenum and jejunum), 0.02 mg/mL total protein in 5 mM pH 7.4 phosphate buffer, 37 °C, aliquots at 0, 2.5, 10, 20 min, quenched with acetonitrile containing 20 mM 2PCA, overnight at room temperature, LC-MS/MS (targeted MS/MS, AIF, background subtraction)
# Experimental: This three-pronged approach was used to analyze two commercially available cyclic peptides, JB1 and somatostatin, in a typical soft spot identification workflow with automated sample preparation. Both JB1, a 12-mer cyclic peptide with the sequence CYAAPLKPAKSC, and somatostatin, a 14-mer cyclic peptide with the sequence AGCKNFFWKTFTSC (disulfide bound between Cys residues), were subjected to incubation in dilute rat intestinal luminal contents matrix on a liquid handling system. To facilitate unsupervised sample preparation, the enzymatic activity of the matrix was quenched with 1 volume of acetonitrile containing 20 mM 2PCA and incubated overnight. The following day, the samples were injected into the MS for analysis directly with the approach outlined in Figure 3. To increase the throughput and proportion of ‘hands-off’ time, the derivatization step was not quenched, and excess reagent or Schiff bases formed during the incubation were not scavenged by hydrazide (as was performed during the selectivity experiments on the tryptic HeLa lysate). While omitting the hydrazide scavenging step could introduce a decrease in sensitivity due to Schiff base formation on basic sites, the concentrations typically used in in vitro incubations ensure that minor decreases in sensitivity will not have deleterious effects on the workflow as a whole. In this case, the liquid handler utilized was unable to manipulate magnetic beads, but future experiments will incorporate a magnetic-bead-compatible liquid handler to incorporate the scavenging step. The method described has the potential to create more than one 2PCA adduct on a given peptide with basic sites, but the utilization of a targeted approach for the singly modified peptide as outlined here circumvents that complication and ensures MS/MS sampling of the peptide of interest.
# HeLa S9 lysate tryptic digest was purchased from ThermoFisher (San Jose, CA, USA). […]
# The flushed intestinal luminal contents from fasted rats were pooled and the concentration of protein was determined. […]
SMILES,"metabolic soft spot: most N-terminal residue of the ring-opened (singly hydrolyzed) peptide, assigned through the 2PCA tag","secondary metabolite (subsequent hydrolysis step after ring opening) (dilute rat intestinal luminal contents, 0.02 mg/mL protein, pH 7.4, 37 °C, 10 min time point, background subtracted AIF XIC of m/z 107.0609)"
CC(C)C[C@@H]1NC(=O)[C@@H]2CCCN2C(=O)[C@H](C)NC(=O)[C@H](C)NC(=O)[C@H](Cc2ccc(O)cc2)NC(=O)[C@@H](N)CSSC[C@@H](C(=O)O)NC(=O)[C@H](CO)NC(=O)[C@H](CCCCN)NC(=O)[C@H](C)NC(=O)[C@@H]2CCCN2C(=O)[C@H](CCCCN)NC1=O [JB1] (H-CYAAPLKPAKSC-OH; disulfide 1-12),serine,clipping of the C-terminal Lysine residue
C[C@H](N)C(=O)NCC(=O)N[C@H]1CSSC[C@@H](C(=O)O)NC(=O)[C@H](CO)NC(=O)[C@H]([C@@H](C)O)NC(=O)[C@H](Cc2ccccc2)NC(=O)[C@H]([C@@H](C)O)NC(=O)[C@H](CCCCN)NC(=O)[C@H](Cc2c[nH]c3ccccc23)NC(=O)[C@H](Cc2ccccc2)NC(=O)[C@H](Cc2ccccc2)NC(=O)[C@H](CC(N)=O)NC(=O)[C@H](CCCCN)NC1=O [somatostatin],first threonine (followed by phenylalanine),–
